Results from EP3298025B1, “NEW AMINO ACID SEQUENCES WITH MI[…] DERIVED FROM NAJA ATRA CARDIOTOXIN 1 (CTX-1)” (Università degli Studi di Parma, priority 2015, dated 2016).
“And” between values parts separate entries of the source, which are not always exact repeats. Equal values may be shown once. Residues, ends and D or L forms follow the SMILES beside them.

Legend:
[1] = test system: Pseudomonas aeruginosa ATCC 27853; experiment: antimicrobial activity in presence of NaCl; format: cell-based
Experimental: (§1) Peptides were tested in the ability to inhibit bacterial growth in liquid medium. 50 µl of peptides at a concentration […] E. coli ATCC 25922, Pseudomonas aeruginosa ATCC 27853 and Staphylococcus aureus methicillin resistant ATCC 43300. After 2 hours incubation at 37°C, bacteria were plated on solid culture medium. Bacterial cultures were cultivated without peptides as growth control.
(§2) The bacterial suspension and peptides at differing concentrations were put in contact for about 2 hours at 37°C. After this incubation, 20 µl from every well of the plate were transplanted on solid culture medium, McConkey agar for Gram-negative and Columbia agar with 5% of bovine erythrocytes for Gram-positive bacteria. The inoculum was evenly distributed on the agar medium using a single use sterile handle. After an incubation time of 24 hours at 37°C, the bacterial colonies (cfu) were counted.

[2] = test system: E. coli ATCC 25922; experiment: antimicrobial activity in presence of NaCl; format: cell-based
Experimental: Peptides were tested in the ability to inhibit bacterial growth in liquid medium. 50 µl of peptides at a concentration between 0.2 µM and 50 µM were […] E. coli ATCC 25922, Pseudomonas aeruginosa ATCC 27853 and Staphylococcus aureus methicillin resistant ATCC 43300. After 2 hours incubation at 37°C, bacteria were plated on solid culture medium. Bacterial cultures were cultivated without peptides as growth control.
as §2

[3] = test system: MRSA ATCC 43300; experiment: antimicrobial activity in presence of Muller-Hinton 20%; format: cell-based, Staphylococcus aureus; conditions: 20% of Muller-Hinton medium
Experimental: (§3) This example verifies the peptides antimicrobial activity in presence of a concentration of 20% of Muller-Hinton liquid medium, characterized by the presence of salts with high concentration.
(§4) Peptides were tested in the ability to inhibit bacterial growth in liquid medium. 50 µl of peptides at a concentration between 3.1 µg/ml (NCP-0=1.4µM; NCP-2=[…]; NCP-3=1.3 µM) and 100 µg/ml (NCP-0=46.3 µM; NCP-2=43.2 µM; NCP-3=41.6 µM) were added in microtiter plate wells with phosphate buffer 10 mM with Muller-Hinton liquid medium al the final concentration of 20% and one of these bacteria: E. coli ATCC 25922, Pseudomonas aeruginosa ATCC 27853, Staphylococcus aureus ATCC 25923 and Staphylococcus aureus methicillin resistant ATCC 43300. After 2 hours incubation at 37°C, bacteria were transplanted on solid culture medium. Bacterial cultures were cultivated without peptides as growth control.

[4] = test system: MRSA ATCC 43300; experiment: antimicrobial activity in presence of NaCl; format: cell-based, Staphylococcus aureus
Experimental: as §1, §2

[5] = test system: Enterococcus hirae ATCC 10541; experiment: micro-dilution in liquid medium and transplant on solid medium, Gram-positive bacteria; format: cell-based; conditions: 2 hours at 37°C, transplant on agar
Experimental: (§5) For each bacterial strain 3-5 morphologically similar colonies from fresh cultures were taken and inoculated in Brain Heart Infusion broth, then incubated at 37°C in agitation at 225 r.p.m. for about 3-4 hours. Then the bacterial suspension was centrifuged at 1000 G for 20 minutes and the pellet resuspended in phosphate buffer pH 7, 10 mM. The turbidity of the bacterial suspension was measured using a spectrophotometer with absorbance of 600 nm; the range 0,08-0,13 equates to about 10^8 cfu/ml. The bacterial suspension was diluted 1:100 in phosphate buffer 10mM to obtain a bacterial concentration of about 10^6 cfu/ml. Within 30 minutes 50 µl of the suspension 10^6 cfu/ml were inoculated in each well of the microtiter plate, to obtain a bacterial concentration of about 5x10^5 cfu/ml.
(§6) The peptides ability to inhibit the bacterial growth in liquid cultures was tested. 50 µl of each peptides solutions of about 0.2-50 µM were added in microtiter plates with 96 wells with liquid culture medium and one of these bacterial strains: Staphylococcus aureus ATCC 25923, MRSA ATCC 43300, Streptococcus agalactiae ATCC 13813 and Enterococcus hirae ATCC 10541. After 2 hours of incubation at 37°C, bacterial suspensions were put on solid culture medium. Bacterial cultures were cultivated without peptides as growth control.
(§7) The bacterial suspension and differing peptides concentrations were put in contact for about 2 hours at 37°C. After this incubation, 20 µl from each well of the plate were transplanted on solid culture medium, Columbia agar with 5% of bovine erythrocytes for Gram-positive bacteria. The inoculum was evenly distributed on the agar medium with the aid of a sterile disposable handle. After an incubation time of 24 hours at 37°C, the bacterial colonies (cfu) were counted.

[6] = test system: Streptococcus agalactiae ATCC 13813; experiment: as above; format: cell-based; conditions: 2 hours at 37°C, transplant on agar
Experimental: as §5, §6, §7

[7] = test system: Staphylococcus aureus ATCC 22953; experiment: as above; format: cell-based; conditions: 2 hours at 37°C, transplant on agar
Experimental: as §5, §6, §7

[8] = test system: E. coli ATCC 25922; experiment: antimicrobial activity in presence of Muller-Hinton 20%; format: cell-based; conditions: 20% of Muller-Hinton medium
Experimental: as §3, §4

[9] = test system: Staphylococcus aureus ATCC 25923; experiment: as above; format: cell-based; conditions: 20% of Muller-Hinton medium
Experimental: as §3, §4

[10] = test system: Pseudomonas aeruginosa ATCC 27853; experiment: as above; format: cell-based; conditions: 20% of Muller-Hinton medium
Experimental: as §3, §4

[11] = 125 mM NaCl, peptide 12.5 µg/ml
[12] = 250 mM NaCl, peptide 12.5 µg/ml

CC[C@H](C)[C@H](NC(=O)[C@H](CCCCN)NC(=O)[C@H](Cc1ccc(O)cc1)NC(=O)[C@H](CS)NC(=O)[C@H](CC(C)C)NC(=O)[C@H](CC(N)=O)NC(=O)[C@H](CCCCN)NC(=O)CNC(=O)[C@H](C)NC(=O)[C@@H]1CCCN1C(=O)[C@H](CS)NC(=O)[C@@H](NC(=O)[C@H](CCCCN)NC(=O)[C@H](CO)NC(=O)[C@H](C)NC(=O)[C@@H](NC(=O)[C@@H]1CCCN1C(=O)[C@@H](NC(=O)[C@H](CC(C)C)NC(=O)[C@@H](N)CCCCN)[C@@H](C)CC)[C@@H](C)CC)[C@@H](C)O)C(=O)O [NCP-0, K LIPIA SKT CPA GKN LCY KI] (H-KLIPIASKTCPAGKNLCYKI-OH; N-terminus and C-terminus assumed)
Antimicrobial activity (% to control) ([1]; 10 mM NaCl, peptide 12.5 µg/ml): 0% | Antimicrobial activity (% to control) ([1]; 10 mM NaCl, peptide 100 µg/ml): 2% | Antimicrobial activity (% to control) [1, 11]: 0% | Antimicrobial activity (% to control) ([1]; 125 mM NaCl, peptide 100 µg/ml): 0% | Antimicrobial activity (% to control) [1, 12]: 0% | Antimicrobial activity (% to control) ([1]; 250 mM NaCl, peptide 100 µg/ml): 0% | Antimicrobial activity (% to control) ([2]; 10 mM NaCl, peptide 12.5 µg/ml): 0% | Antimicrobial activity (% to control) ([2]; 10 mM NaCl, peptide 100 µg/ml): 3% | Antimicrobial activity (% to control) [2, 11]: 0% | Antimicrobial activity (% to control) ([2]; 125 mM NaCl, peptide 100 µg/ml): 0% | Antimicrobial activity (% to control) [2, 12]: 0% | Antimicrobial activity (% to control) ([2]; 250 mM NaCl, peptide 100 µg/ml): 0% | Antimicrobial activity (% to control) ([3]; peptide 3.1 µg/ml): 0% | Antimicrobial activity (% to control) ([3]; peptide 6.3 µg/ml): 0% | Antimicrobial activity (% to control) ([3]; peptide 12.5 µg/ml): 0% | Antimicrobial activity (% to control) ([3]; peptide 100 µg/ml): 0% | Antimicrobial activity (% to control) ([4]; 10 mM NaCl, peptide 12.5 µg/ml): 0% | Antimicrobial activity (% to control) ([4]; 10 mM NaCl, peptide 100 µg/ml): 2% | Antimicrobial activity (% to control) [4, 11]: 0% | Antimicrobial activity (% to control) ([4]; 125 mM NaCl, peptide 100 µg/ml): 0% | Antimicrobial activity (% to control) [4, 12]: 0% | Antimicrobial activity (% to control) ([4]; 250 mM NaCl, peptide 100 µg/ml): 0% | LD90 [5]: > 100 µg/ml and > 46.3 µM | LD99 [5]: > 200 µg/ml and > 92.6 µM | LD90 [6]: 100 µg/ml and 46.3 µM | LD99 [6]: > 100 µg/ml and > 46.3 µM | LD90 [7]: > 100 µg/ml and > 46.3 µM | LD99 [7]: > 200 µg/ml and > 92.6 µM | Antimicrobial activity (% to control) ([8]; peptide 3.1 µg/ml): 0% | Antimicrobial activity (% to control) ([8]; peptide 6.3 µg/ml): 0% | Antimicrobial activity (% to control) ([8]; peptide 12.5 µg/ml): 0% | Antimicrobial activity (% to control) ([8]; peptide 100 µg/ml): 0% | Antimicrobial activity (% to control) ([9]; peptide 3.1 µg/ml): 0% | Antimicrobial activity (% to control) ([9]; peptide 6.3 µg/ml): 0% | Antimicrobial activity (% to control) ([9]; peptide 12.5 µg/ml): 0% | Antimicrobial activity (% to control) ([9]; peptide 100 µg/ml): 0% | Antimicrobial activity (% to control) ([10]; peptide 3.1 µg/ml): 0% | Antimicrobial activity (% to control) ([10]; peptide 6.3 µg/ml): 0% | Antimicrobial activity (% to control) ([10]; peptide 12.5 µg/ml): 0% | Antimicrobial activity (% to control) ([10]; peptide 100 µg/ml): 0%
